The values that follow come from patent US11464854B2, “Methods and compositions relating to adjuvants” (Children's Medical Center Corporation, priority 2017, dated 2022).

Data set [1] deals with TNF. Briefly: Rat pharmacodynamics: serum TNF by ELISA. The note with it: rats, single IM or SC administration. Type of data set: in vivo, rats.
For data set [2], the system named is human neonatal and adult blood. Briefly: Human whole blood assay, cytokine induction (3M-052, PCV13). Format: cell-based. Conditions: 6 hours, concentration-dependent, each agent alone. An excerpt: Human blood sample processing and in vitro stimulation. Peripheral blood was collected from healthy adult volunteers, while human newborn cord blood was collected immediately after Cesarean section delivery of the placenta. Births to known HIV-positive mothers were excluded. Human experimentation guidelines of the U.S. Department of Health and Human Services, The Brigham & Women's Hospital, Beth Israel Deaconess Medical Center Boston, and Boston Children's Hospital were observed, following protocols approved by the local institutional review boards. Human blood was anti-coagulated with 20 units/ml pyrogen-free sodium heparin (American Pharmaceutical Partners, Inc.; Schaumberg, Ill.). All blood products were kept at room temperature and processed within 4 hours from collection. […] Additionally, whole blood assay supernatants were analyzed by multiplex cytokine assays (Millipore; Billerica, Mass., USA). […]
TLR agonists and multi-analyte assays. […] Cytokine and chemokine expression profiles in cell culture supernatants and peripheral blood plasma were measured using customized Milliplex human and non-human primate cytokine/chemokine magnetic bead panels (Millipore), respectively. Assays were analyzed on the Luminex® 100/200™ System employing xPOTENT® software (Luminex; Austin, Tex.) and Millipore Milliplex Analyst (version 3.5.5.0).

Data set [3] deals with influenza hemagglutinin (HA). Briefly: Mouse immunization with influenza hemagglutinin (HA), HA-specific serum Ig by ELISA. Format: in vivo, Balb/c mice. Conditions: three times, Day 77. For orientation: In an ELISA, binding on a coated surface is turned into a signal by an enzyme label.
Data set [4] concerns human neonatal and adult blood. Briefly: Human whole blood assay, cytokine induction (CRX adjuvants). Format: cell-based. The protocol:
Human blood was anti-coagulated with 20 units/ml pyrogen-free sodium heparin (American Pharmaceutical Partners, Inc.; Schaumberg, Ill.). All blood products were kept at room temperature and processed within 4 hours from collection. Human whole blood assays were completed as previously described. Briefly, neonatal cord blood or adult whole blood (WB) was mixed 1:1 with sterile pre-warmed (37° C.) RPMI 1640 medium (Invitrogen; Carlsbad, Calif.) and 180-225 μl of the 1:1 suspension was added to each well of a 96 well U-bottom plate (Becton Dickinson; Franklin Lakes, N.J., USA) containing 20-25 μl freshly prepared specific TLRAs at 10× the final concentration. Suspensions containing 200-250 μl/well were gently mixed by pipetting and incubated for 6 hours at 37° C. in a humidified incubator at 5%, CO2. After culture, plates were centrifuged at 500×g and ˜100-150 μl of supernatant was carefully removed by pipetting without disturbing the cell pellet. Supernatants derived from human leukocyte stimulations were assayed by ELISA for TNF and IFNγ (BD Biosciences; San Jose, Calif., USA).
Additionally, for both newborn and adult readouts, cytokine and chemokine expression profiles in cell culture supernatants and peripheral blood plasma were measured using customized Milliplex™ human cytokine/chemokine magnetic bead panels (Millipore; Billerica, Mass., USA). Assays were analyzed on the Luminex® 100/200™ System employing xPOTENT® software (Luminex; Austin, Tex.) and Millipore Milliplex Analyst™ (version 3.5.5.0). The minimum threshold for each analyte was set at the minimum detectable concentration for a given assay, defined as three standard deviations above the mean background. CL075 (TLR8/7) was purchased from InvivoGen (San Diego, Calif.) and used at the concentrations noted in the figure legends.

The test system of data set [5] is newborn cord blood mononuclear cells (CBMCs). Briefly: Human newborn Th1 polarization assay. Format: cell-based. Conditions: 10 μM, with αCD3, 96 hrs. The protocol:
Newborn cord blood mononuclear cells (CBMCs), a mixed mononuclear cell culture which is a largely naïve newborn T cell population, were stimulated with the TLR7/8 agonists in the presence of the polyclonal T cell activator αCD3 for 96 hours. T cell polarization was evaluated by IFNγ levels measured in cell-free supernatants by ELISA.

Data set [6] is described as follows: Adsorption onto alum derived from DTaP vaccine (RP-HPLC). Format: physicochemical. The note with it: within 1-2 hr, all circumstances tested.
For data set [7], the system named is adult human PBMCs. The experiment in a line: Adult human PBMC stimulation.
[8] abbreviates: 1 μM and 10 μM, newborn over adult whole blood.

Molecules are shown by their SMILES.

Regarding `CCCCCCCCCCCCCCCCCC(=O)NCCCCOn1c(CCCC)nc2c(N)nc3ccccc3c21` [3M-052, N-[4-[(4-amino-2-butyl-1H-imidazo[4,5-c]quinolin-1-yl)oxy]butyl]octadecanamide], the “Blood tumor necrosis factor (TNF) concentrations, peak” value in data set [1] was “no induced systemic TNF detectable”. For the same molecule, the “production of TNF” value in data set [2] is listed as “significantly inducing production of TNF over baseline”. The “antigen-specific IgG levels (IgG1, IgG2a)” value in data set [3] (HA 10 μg with 0.01-1 mg/kg 3M-052 SC) was “enhances antigen-specific IgG levels”. The “HA-specific IgG2a Ab production” value in data set [3] (added to Alum-adjuvanted HA 10 μg, 0.1 mg/kg 3M-052 SC) is reported as “markedly enhances”.

Turning to `CCCCc1nc2c(N)nc3ccccc3c2n1CCO` [CRX-649], in data set [4] (setting [8]), the “CXCL8, CXCL10, CCL2 and GM-CSF production (multiplex)” value was “greater CRX-649 induced production in newborn blood”; the “production of IL-1β, L-6, IL-10, and IL-12p40 (multiplex)” value is “concentration-dependent production”. Moreover, in data set [4] (10 μM), the “IFNγ production in newborn blood relative to similarly treated adult blood” value is on record as “twice”. In addition, in data set [4] (6 hours), the “TNF production in newborn cord blood versus adult” value is “more than adult-like age-specific potency and effectiveness”. Further, in data set [4] (newborn blood, 10 μM, 6 hours), the IFNγ production is about 1200 pg/mL. Besides, the “induction of IFNγ” value in data set [4] (newborn cord blood, 6 hours) was “greatest potency, effectiveness and IFNγ polarization”. In addition, the “IFNγ production by newborn T cells” value in data set [5] is “significantly enhanced ability to induce IFNγ production”. Also, the “adsorption to the alum/antigen” value in data set [6] is 4-7%. The “expression of CD123, HLA-D, CD80 and CD86” value in data set [7] (24 h, compared to unstimulated cells, flow cytometry) is recorded as “increased expression”. The cytokine skewing entry in data set [7] (adult PBMCs) is given as “pro-inflammatory biased”.
